# Experimental data as given in patent US12351588B2, “Salt forms and solvates of Mcl-1 antagonists” (AMGEN INC., priority 2022, dated 2025).
# Structures can show the parent of a compound that is named as a salt.
# Assays:
# [1] = Solubility of AMG 176 Form 1 in water under neutral conditions; format: physicochemical
# [2] = Moisture sorption (DVS, VTI vapor sorption analyzer); format: physicochemical; details: for weight gain (moisture sorption profile): by 95% relative humidity, 25° C.
# Procedure: Moisture Sorption: Moisture sorption data was collected at 25° C. using a VTI vapor sorption analyzer. A sample size of approximately 4-10 mg was used in a standard platinum pan. Hygroscopicity was evaluated from 5 to 95% RH in increments of 5% RH. Data for adsorption and desorption cycles were collected. Equilibrium criteria were set at 0.001% weight change in 10 minute with a maximum equilibration time of 180 minutes.
Compound,solubility [1] [µg/mL],weight gain (moisture sorption profile) [2],fate of the sorbed weight gain upon desorption ([2]; desorption after sorption to 95% relative humidity)
CO[C@H]1/C=C/C[C@H](C)[C@@H](C)S(=O)(=O)NC(=O)c2ccc3c(c2)N(C[C@@H]2CC[C@H]21)C[C@@]1(CCCc2cc(Cl)ccc21)CO3 [AMG 176 Form 1],< 0.1,,
CO[C@H]1/C=C/C[C@H](C)[C@@H](C)S(=O)(=O)NC(=O)c2ccc3c(c2)N(C[C@@H]2CC[C@H]21)C[C@@]1(CCCc2cc(Cl)ccc21)CO3 [crystalline ammonium salt form of AMG 176],,about 1.2%,
CO[C@H]1/C=C/C[C@H](C)[C@@H](C)S(=O)(=O)NC(=O)c2ccc3c(c2)N(C[C@@H]2CC[C@H]21)C[C@@]1(CCCc2cc(Cl)ccc21)CO3 [crystalline potassium salt hydrate form of AMG 176],,about 5%,lost upon desorption
